Experimental data taken from patent publication US20120294803A1, “CXCR4 ANTAGONISTS FOR IMAGING OF CANCER AND INFLAMMATORY DISORDERS” (EMORY UNIVERSITY, priority 2010, published 2012).
pKd: −log10 of the molar value.

Columns and labels:
CXCR4 = CXCR4 (Homo sapiens, UniProt P61073); assay: Competition binding assay, metastatic 686LN cells with [18F]M508F and increasing nonradioactive [19F]M508F
Description: To determine whether [^18F]M508F specifically and quantitatively would bind to CXCR4 on the cell surface, we tested this using the metastatic 686LN subclones that are CXCR4-positive in vitro. […] Similarly, a competition assay was used to determine the binding affinity of [^18F]M508F to CXCR4. Metastatic 686LN cells, incubated with a constant amount of [^18F]-M508F and increasing concentrations of nonradioactive [^19F]-M508F for 1 h at ambient temperature, were used in the competition binding assay.

[1] = Tissue biodistribution by tissue harvesting and gamma counter in normal mice; assay type: in vivo, C57Black mice; conditions: 15, 30, 60, 120 min post-injection
Description: To determine the tissue biodistribution of [^18F]M508F using a gamma counter in regular C57Black mice, we harvested animal organs, including blood, at 15 min, 30 min, 60 min, and 120 min post-injection and measured the uptake of radioactivity in various organs [radioactivity (% injected dose)/g] with n=5 per group.
Results are shown in FIG. 2 as average vales +/−SE.

[2] = test system: CXCR4-positive orthothopic SCCHN tumors; assay: MicroPET imaging in orthotopic SCCHN animal model; assay type: in vivo, mouse; conditions: 30 mins post-injection
Description: In vivo biodistribution and tumor uptake studies were performed to determine whether [^18F]M508F can be used to image CXCR4-positive tumors in vivo.

CXCR4-positive paw edema = assay: MicroPET/CT imaging in edema animal model; assay type: in vivo, mice; conditions: 30 mins post-injection
Description: In vivo biodistribution studies were performed to determine whether [^18F]M508F can be used to image CXCR4-positive inflammation in vivo.

[3] = test system: CXCR4-positive lung metastases; assay: MicroPET/CT imaging in lung metastasis of SCCHN animal model; assay type: in vivo, mouse; conditions: 60 mins post-injection
Description: MicroPET/CT scan images of the lungs were performed to determine whether [^18F]M508F can be used to image CXCR4-positive lung metastases in vivo. These images were obtained 60 minutes post-injection of [^18F]M508F.

[4] = test system: CXCR4-positive immune cells; assay: MicroPET/CT imaging of lung inflammation induced by strong-dose radiation; assay type: in vivo, mouse; conditions: 20 Gy irradiation, 60 mins post-injection
Description: MicroPET/CT scan images of the lungs were performed to determine whether [^18F]M508F can be used to image lung inflammation induced by the strong-dose radiation therapy in vivo. These images were obtained 60 minutes post-injection of [^18F]M508F.
These images were obtained 60 minutes post-injection of [^18F]M508F.

Chain of CXCR4 (P61073 whole entry, species assumed): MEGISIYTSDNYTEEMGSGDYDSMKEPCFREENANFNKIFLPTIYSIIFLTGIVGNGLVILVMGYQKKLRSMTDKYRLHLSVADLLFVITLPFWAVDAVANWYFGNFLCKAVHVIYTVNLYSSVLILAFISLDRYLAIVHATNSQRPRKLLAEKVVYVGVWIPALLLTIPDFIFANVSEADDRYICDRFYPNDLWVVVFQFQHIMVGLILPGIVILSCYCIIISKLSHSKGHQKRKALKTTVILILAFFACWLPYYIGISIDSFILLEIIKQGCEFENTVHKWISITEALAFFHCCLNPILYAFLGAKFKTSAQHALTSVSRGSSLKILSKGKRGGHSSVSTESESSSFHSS

With `Fc1cnc([18F])nc1NCc1ccc(CNc2ccnc(NCCN3CCOCC3)n2)cc1` [[^18F]M508F, N4-(4((2-^18-fluoro,5-fluoropyrimidin-4-ylamino)methyl)benzyl)-N2-(2-morpholinoethyl)pyrimidine-2,4-diamine] the “binding affinity better than 64Cu-AMD3100” value (CXCR4; 1.85 μM compared with […]) was “over 50 times”, the pKd (CXCR4; metastatic 686LN cells, 1 h at ambient temperature, competition with nonradioactive [19F]-M508F, read-out: binding affinity for CXCR4) was 5.73 and the “accumulation in the liver” value [1] was “anomalous specific accumulation in the liver”. For the same molecule, the “blood and muscle clearance” value [1] was “fast blood and muscle clearance”, the clearance pathway [1] was “renal clearance pathway” and the “tumor uptake of tracer (PET)” value [2] was “significant uptake”. The “crossing of the blood-brain-barrier” value ([2]; PET sagittal image) was “does not cross the blood-brain-barrier”, the “uptake of tracer in paw edema (PET)” value (CXCR4-positive paw edema) was “significant uptake” and the “uptake of tracer by metastatic SCCHN tumors in lung (PET/CT)” value [3] was “significant uptake”. For the same molecule, the “uptake of tracer by CXCR4-positive immune cells in lung inflammation (PET/CT)” value [4] was “significant uptake”.
